US9771361B2, “Inhibitors of influenza viruses replication” (priority 2013, dated 2017)

Key:
Assay type in all cases: cell-based, influenza A virus
Conditions in all cases: read-out: Cell Protection Assay EC50 ± SD Comp (1)
A/WS/33 = system: A/WS/33
A/Wisconsin/67/2005 = system: A/Wisconsin/67/2005
A/Weiss/43 = system: A/Weiss/43
A/Port Chalmers/1/73 = system: A/Port Chalmers/1/73
A/St. Petersburg/8/2006 = system: A/St. Petersburg/8/2006
A/NWS/33 = system: A/NWS/33
A/Texas/12/2007 = system: A/Texas/12/2007
[1] = system: A/California/07/2009 NYMC X-179A
A/California/07/2009 = system: A/California/07/2009
A/Georgia/20/2006 = system: A/Georgia/20/2006
A/Nebraska/1/2006 = system: A/Nebraska/1/2006
A/Mexico/4108/2009 = system: A/Mexico/4108/2009
A/Virginia/01/2006 = system: A/Virginia/01/2006
A/Uruguay/716/2007 = system: A/Uruguay/716/2007
A/Puerto Rico/8/34 = system: A/Puerto Rico/8/34
A/Texas/48/2009 = system: A/Texas/48/2009

**Q.** Which EC50 (A/WS/33) does the source give for `O=C(O)[C@H]1C2CCC(CC2)C1Nc1nc(-c2c[nH]c3ncc(F)cc23)ncc1F` (stereo partly shown) [Compound (1)] here?
**A.** Its EC50 is 3.2 ± 4.3 nM.

**Q.** What about the EC50 (A/Wisconsin/67/2005) of the same molecule?
**A.** Its EC50 is 1.8 ± 0.24 nM.

**Q.** What about the EC50 (A/Weiss/43) of the same molecule?
**A.** Its EC50 is 0.31 ± 0.23 nM.

**Q.** What about the EC50 (A/Port Chalmers/1/73) of the same molecule?
**A.** The EC50 was 0.54 ± 0.11 nM.

**Q.** What about the EC50 (A/St. Petersburg/8/2006) of the same molecule?
**A.** The EC50 was 0.88 ± 0.69 nM.

**Q.** And the EC50 (A/NWS/33)?
**A.** Its EC50 is 0.73 ± 0.1 nM.

**Q.** What about the EC50 (A/Texas/12/2007) of the same molecule?
**A.** The EC50 was 0.65 ± 0.22 nM.

**Q.** What about the EC50 [1] of the same molecule?
**A.** Its EC50 is 2.7 ± 1.8 nM.

**Q.** What about the EC50 (A/California/07/2009) of the same molecule?
**A.** Its EC50 is 1.8 ± 1.6 nM.

**Q.** What about the EC50 (A/Georgia/20/2006) of the same molecule?
**A.** The EC50 was 2.6 ± 3.8 nM.

**Q.** And the EC50 (A/Nebraska/1/2006)?
**A.** Its EC50 is 2.1 ± 1.3 nM.

**Q.** What about the EC50 (A/Mexico/4108/2009) of the same molecule?
**A.** Its EC50 is 2.7 ± 1.8 nM.

**Q.** What about the EC50 (A/Virginia/01/2006) of the same molecule?
**A.** The EC50 was 0.42 ± 0.24 nM.

**Q.** What about the EC50 (A/Uruguay/716/2007) of the same molecule?
**A.** Its EC50 is 3.5 ± 5.1 nM.

**Q.** And the EC50 (A/Puerto Rico/8/34)?
**A.** Its EC50 is 3.2 ± 1.8 nM.

**Q.** What about the EC50 (A/Texas/48/2009) of the same molecule?
**A.** The EC50 was 2.8 ± 3.2 nM.
